Test results from patent publication US10407445B2, “Hepatitis C virus inhibitors” (ENANTA PHARMACEUTICALS, INC., priority 2013, dated 2019).

What was measured:
Format in all cases: cell-based
HCV GT 1a replicon = assay: HCV replicon assay, stable GT 1a replicon (Renilla luciferase); details: Hepatitis C virus, GT1A; HCV GT 1a replicon, 72 h; read-out: EC50 1a
In short: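 Huh-7.5 cells stably carrying a GT1a replicon (H77-based) with Renilla luciferase-Neo reporter, 4000 cells/well, sixteen-point half-log compound series, phenol red-free DMEM without G418. Luciferase read after 72 h relative to DMSO-treated cells gives EC50.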

HCV GT 3a replicon = assay: HCV replicon assay, GT2a chimeric replicon expressing NS5A from GT3a strain S52; details: Hepatitis C virus, 72 h, read-out: EC50 3a
In short: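 Stable Huh-7.5 lines carried JFH-1 subgenomic replicons with hRluc-Neo reporter, in which NS5A was swapped for GT3a strain S52 or GT2a strain J6 NS5A. Renilla luciferase was read after 72 h relative to DMSO controls.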

[1] = tested on: GT1a replicon encoding NS5A mutation Q30R; assay: Transient replication assay, GT1a replicon with NS5A mutation Q30R; details: Hepatitis C virus, read-out: EC50 1a Q30R

COC(=O)N[C@H](C(=O)N1CCC[C@H]1c1nc2ccc3cc(-c4ccc5c(ccc6nc([C@@H]7C[C@@]8(CCCOC8)CN7C(=O)[C@@H](NC(=O)OC)C(C)C)[nH]c65)c4)ccc3c2[nH]1)C(C)C [Compound 48]
EC50 (HCV GT 1a replicon): 0.006 nM | EC50 (HCV GT 3a replicon): 0.07 nM | EC50 [1]: 0.05 nM

COC(=O)N[C@H](C(=O)N1C[C@@]2(CCCCO2)C[C@H]1c1nc(-c2ccc(-c3ccc4c(ccc5nc([C@@H]6CCCN6C(=O)[C@@H](NC(=O)OC)C(C)C)[nH]c54)c3)cc2)c[nH]1)C(C)C [Example 3]
EC50 (HCV GT 1a replicon): 0.146 nM | EC50 (HCV GT 3a replicon): 156 nM | EC50 [1]: 5 nM

COC(=O)N[C@H](C(=O)N1C[C@]2(CCCOC2)C[C@H]1c1ncc(-c2ccc(-c3ccc4c(ccc5nc([C@@H]6C[C@@]7(CCCOC7)CN6C(=O)[C@@H](NC(=O)OC)C(C)C)[nH]c54)c3)cc2)[nH]1)C(C)C [Compound 11]
EC50 (HCV GT 1a replicon): 0.023 nM | EC50 (HCV GT 3a replicon): 0.4 nM | EC50 [1]: 0.05 nM

COC(=O)N[C@H](C(=O)N1C[C@]2(CCCOC2)C[C@H]1c1ncc(-c2ccc(-c3ccc4c(c3)CCCc3nc([C@@H]5C[C@@H]6CCCC[C@@H]6N5C(=O)[C@@H](NC(=O)OC)C(C)C)[nH]c3-4)cc2)[nH]1)C(C)C [Compound 40]
EC50 (HCV GT 1a replicon): 0.011 nM | EC50 (HCV GT 3a replicon): 44 nM | EC50 [1]: 0.05 nM

COC(=O)N[C@H](C(=O)N1CC2(CCOCC2)C[C@H]1c1ncc(-c2ccc(-c3ccc4c(ccc5nc([C@@H]6CCCN6C(=O)[C@@H](NC(=O)OC)C(C)C)[nH]c54)c3)cc2)[nH]1)C(C)C [Example 83]
EC50 (HCV GT 1a replicon): 0.029 nM | EC50 (HCV GT 3a replicon): 0.7 nM | EC50 [1]: 1 nM

COC(=O)N[C@H](C(=O)N1C[C@]2(CCCOC2)C[C@H]1c1nc2ccc3cc(-c4ccc(-c5cnc([C@@H]6C[C@@H]7CCC[C@@H]7N6C(=O)[C@@H](NC(=O)OC)C(C)C)[nH]5)cc4)ccc3c2[nH]1)C(C)C [Compound 10]
EC50 (HCV GT 1a replicon): 0.005 nM | EC50 (HCV GT 3a replicon): 0.2 nM | EC50 [1]: 0.02 nM

COC(=O)N[C@H](C(=O)N1C[C@]2(CCCOC2)C[C@H]1c1ncc(-c2ccc(-c3ccc4c(ccc5nc([C@@H]6C[C@@H]7C[C@@H]7N6C(=O)[C@@H](NC(=O)OC)C(C)C)[nH]c54)c3)cc2)[nH]1)C(C)C [Compound 20]
EC50 (HCV GT 1a replicon): 0.014 nM | EC50 (HCV GT 3a replicon): 1 nM | EC50 [1]: 0.2 nM
